Values joined by “and” are separate entries in the source; they are usually repeats but may differ in a detail not shown here. Equal entries are not always repeated.
Experiments:
[1] = molecular target: T1, Calf skin collagen Type I (Bos taurus, UniProt P02453+P02465); assay: Collagen crosslinking by 3DG in vitro (CNBr digestion, SDS-PAGE); assay type: biochemical; details: 37° C., 24 hours
T1 construct: Calf skin collagen Type I (1.3 mg; Sigma); purchased Sigma; host or cells: calf skin (tissue-derived)
Protocol: Collagen type I was treated with 3DG in the presence or absence of arginine. The samples were subjected to cyanogen bromide (CNBr) digestion, electrophoresed on a 16.5% SDS Tris-tricine gel, and then the gels were processed using silver stain techniques to visualize the proteins. Lane 1 contains molecular weight marker standards. Lanes 2 and 5 contain 10 and 20 μl of the collagen mixture following CNBr digestion. Lanes 3 and 6 contain the collagen mixture treated with 3DG and then digested with CNBr, and loaded at 10 and 20 μl, respectively. Lanes 4 and 7 contain the mixture of collagen incubated with 5 mM 3DG and 10 mM arginine and then digested with CNBr, and loaded at 10 and 20 μl, respectively.
Collagen I was incubated in the presence or absence of 3DG in vitro. Calf skin collagen Type I (1.3 mg; Sigma) was incubated in 20 mM Na-phosphate buffer, pH 7.25, either alone, with 5 mM 3DG, or with 5 mM 3DG plus 10 mM arginine, in a total volume of 1 ml at 37° C. for 24 hours and then frozen and lyophilized. The residue was dissolved in 0.5 ml of 70% formic acid and cyanogen bromide was added (20:1, w/w). This solution was incubated at 30° C. for 18 hours. […] The extent of collagen crosslinking was determined by applying equal volumes of sample and analyzing by SDS-PAGE electrophoresis (16.5% Tris-tricine gel), as determined by the effects of 3DG on the migration of collagen.

3-deoxyglucosone = assay: Reduction of urinary and plasma 3-deoxyglucosone in rats; assay type: in vivo, rat; details: for Plasma 3-deoxyglucosone reduced / average reduction of urinary 3-deoxyglucosone: rats, 10 μmols intraperitoneal; for Plasma 3-deoxyglucosone reduced: plasma at end of three hours; for average reduction of urinary 3-deoxyglucosone: urine three hours after vs before, normalized to creatinine
Protocol: Urine was collected from six rats for three hours. A plasma sample was also obtained. The animals were then given 10 μmols of either sorbitollysine, mannitollysine, or galactitollysine by intraperitoneal injection. Urine was collected for another three hours, and a plasma sample obtained at the end of the three hours.
a. 3-deoxyglucosone was measured in the samples, as described in Example 5, below, and variable volumes were normalized to creatinine. The average reduction of urinary 3-deoxyglucosone was 50% by sorbitollysine, 35% by mannitollysine and 35% by galactitollysine. Plasma 3-deoxyglucosone was reduced 40% by sorbitollysine, 58% by mannitollysine and 50% by galactitollysine.
Three rats were treated as in b), immediately above, except meglumine (100 μmols) was injected intraperitoneally instead of the above-mentioned lysine derivatives. Three hours after the injection the average 3-deoxyglucosone concentrations in the urine were decreased 42%.
3DG was measured by GC-MS after deionization of the sample. 3DG was derivatized with a 10-fold excess of diaminonaphthalene in PBS. Ethyl acetate extraction gave a salt free fraction which was converted to the trimethyl silyl ethers with Tri-Sil (Pierce). Analysis was performed on a Hewlett-Packard 5890 selected ion monitoring GC-MS system. GC was performed on a fused silica capillary column (DB-5.25 mx. […]) using the following temperature program: injector port 250° C., initial column temperature 150° C. which is held for 1 minute, then increased to 290° C. at 16° C./minute and held for 15 minutes. Quantitation of 3DG employed selected ion monitoring using an internal standard of U-13C-3DG.

3DG = assay: Plasma 3DG levels in diabetic and non-diabetic rats treated with 3-O-methyl sorbitollysine; assay type: in vivo, rat; details: for plasma 3DG level: 50 mg/kg body weight injections, within one week
Protocol: A cohort of twelve diabetic rats was divided into two groups of six. The first group received saline-only injections, and the second received injections of 3-O-methyl sorbitollysine (50 mg/kg body weight) in saline solution. The same procedure was conducted on a cohort of twelve non-diabetic rats.

[2] = Locus of 3-O-methyl sorbitollysine uptake in vivo (recovery from tissues, urine, plasma); set-up: species or system rat
Protocol: […] Urine was collected for 3 hours, after which the rats were sacrificed. The tissues to be analyzed were removed and freeze clamped in liquid nitrogen. Perchloric acid extracts of the tissues were used for metabolite analysis. The tissues examined were taken from the brain, heart, muscle, sciatic nerve, spleen, pancreas, liver, and kidney. Plasma was also analyzed.

[3] = system: skin of STZ-diabetic rats; assay: Skin elasticity measurement (vacuum pull) in STZ-diabetic and normal rats; assay type: in vivo, rat; details: 50 mg/kg daily subcutaneous, eight weeks
Protocol: Experiments were performed to determine the effects of DYN 12 on the loss of skin elasticity associated with diabetes. To this end, two groups of STZ-diabetic rats and two groups of normal rats were subjected to treatment with DYN 12 or saline. One group of STZ-diabetic rats (n=9) received daily subcutaneous injections of DYN 12 at 50 mg/kg for eight weeks, as did one group of normal rats (n=6). A group of control diabetic rats (n=10) and a group of normal rats (n=6) received saline instead of DYN 12. One rat was removed from the diabetic DYN 12 group after 2 weeks because its blood glucose readings were inconsistent (too low) with other diabetic rats.
A non-invasive procedure based on CyberDERM, Inc. technology utilizing a skin elasticity measurement device was used to test the effects of DYN 12 treatment on skin elasticity. The procedure provides for non-invasive measurement of skin elasticity based upon the amount of vacuum pull required to displace skin. A suction cup probe is adhered to an area of shaved skin in order to form an airtight seal. Then, a vacuum is applied to the area of the skin inside the suction cup until the skin is displaced past a sensor located inside the probe. Accordingly, the more pressure that is required to displace the skin, the less elastic the skin is.

diabetic rats = assay: Muscle strength / resistance to pull in alert restrained diabetic rats; assay type: in vivo, rat; details: diabetic rats treated vs not treated; preliminary data
Excerpt: The present invention also encompasses methods for prevention of hair loss associated with or mediated by loss of microcirculation and/or loss of neuro-innervation in populations of aging, sclerodermic and/or in diabetic individuals. This is because 3DG is a known precursor to the formation of AGEs which are known to be causally connected to the development of neuropathy. […] This supports the concept that maintenance of nerve conduction and microcirculation that supports nerve innervation is deleteriously affected not only by AGEs, but also 3DG. Similarly, where 3DG would cause blockage of the microcirculation that supports nerve innervation of the hair follicle, the hair follicle will atrophy and die, as is the case in neuropathy. Accordingly, the present invention includes methods for preventing hair loss, where such hair loss is associated with or mediated by the presence of 3DG in the skin proximal to a hair follicle/shaft.
Skin elasticity measurements were also taken on the test subjects as described above, but without sedating the test animals before measurement. FIG. 15 illustrates skin elasticity measurements taken on the hind leg of the test subjects while the subjects were alert and being restrained by a technician.
In these experiments, the animals were fiercely fighting restraint and the results are different.

mouse mesangial cells = assay: Type IV collagen production in kidney cells in vitro; assay type: cell-based
Protocol: Type IV collagen production was measured in mouse mesangial cells. Controls (grown with […]) produced 300 ng of Type IV collagen per 10,000 cells, whereas fructoselysine treated cells (5 or 10 mM fructoselysine with 10 mM glucose) produced 560 and 1100 ng/10,000 cells.

[4] = set-up: species or system human; details: in vivo
Protocol: Volunteers spent two days on a fructoselysine-free diet and then consumed 22.5 g of the food product prepared as described herein, thus effectively receiving a 2 gram dose of fructoselysine. Urine was collected at 2 hour intervals for 14 hours and a final collection was made at 24 hours. FL was measured by HPLC with a Waters 996 diode Array using a Waters C18 Free Amino Acid column at 46° C. and a gradient elution system of acetonitrile-methyl alcohol-water (45:15:40) into acetonitrile-sodium acetate-water (6:2:92) at 1 ml/min. Quantitation employed an internal standard of meglumine. 3DF was measured by HPLC after deionization of the sample. Analyses were performed on a Dionex DX-500 HPLC system employing a PA1 column (Dionex) and eluting with 32 mM sodium hydroxide at 1 ml/min. Quantitation was performed from standard curves obtained daily with synthetic 3DF. 3DG was measured by GC-MS after deionization of the sample. 3DG was derivatized with a 10-fold excess of diaminonaphthalene in PBS. Ethyl acetate extraction gave a salt free fraction which was converted to the trimethyl silyl ethers with Tri-Sil (Pierce). Analysis was performed on a Hewlett-Packard 5890 selected ion monitoring GC-MS system. […] Quantitation of 3DG employed selected ion monitoring using an internal standard of U-13C-3DG.

T1 sequence (P02453 162-1217 limits assumed): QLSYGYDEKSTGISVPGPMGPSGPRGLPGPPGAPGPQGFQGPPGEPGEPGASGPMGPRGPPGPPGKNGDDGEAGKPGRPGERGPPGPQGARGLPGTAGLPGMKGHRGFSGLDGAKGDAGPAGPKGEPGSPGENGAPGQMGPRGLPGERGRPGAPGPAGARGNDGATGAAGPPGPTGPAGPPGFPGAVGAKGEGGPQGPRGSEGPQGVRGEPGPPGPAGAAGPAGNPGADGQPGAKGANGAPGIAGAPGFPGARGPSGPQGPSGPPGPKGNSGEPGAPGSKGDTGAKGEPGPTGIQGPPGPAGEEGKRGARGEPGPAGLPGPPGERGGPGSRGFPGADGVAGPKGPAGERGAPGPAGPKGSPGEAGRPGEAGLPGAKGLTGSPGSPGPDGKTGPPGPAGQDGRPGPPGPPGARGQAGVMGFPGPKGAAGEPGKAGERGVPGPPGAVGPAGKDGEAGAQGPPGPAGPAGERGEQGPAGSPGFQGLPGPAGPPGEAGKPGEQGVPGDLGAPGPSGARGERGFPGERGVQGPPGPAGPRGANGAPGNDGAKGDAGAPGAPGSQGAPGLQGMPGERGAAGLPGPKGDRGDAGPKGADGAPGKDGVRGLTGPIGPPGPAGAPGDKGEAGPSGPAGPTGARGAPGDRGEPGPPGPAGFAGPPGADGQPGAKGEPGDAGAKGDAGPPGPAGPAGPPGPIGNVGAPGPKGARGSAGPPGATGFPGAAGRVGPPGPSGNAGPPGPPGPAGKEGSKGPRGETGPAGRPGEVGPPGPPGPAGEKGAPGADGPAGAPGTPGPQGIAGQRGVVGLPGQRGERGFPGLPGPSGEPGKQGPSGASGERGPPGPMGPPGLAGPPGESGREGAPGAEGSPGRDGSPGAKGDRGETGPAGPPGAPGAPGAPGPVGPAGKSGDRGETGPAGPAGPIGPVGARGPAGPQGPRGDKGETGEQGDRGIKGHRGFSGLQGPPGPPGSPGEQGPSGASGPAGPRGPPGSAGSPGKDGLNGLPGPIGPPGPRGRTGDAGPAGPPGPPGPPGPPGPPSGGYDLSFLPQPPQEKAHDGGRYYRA
T1 sequence (P02465 80-1117 limits assumed): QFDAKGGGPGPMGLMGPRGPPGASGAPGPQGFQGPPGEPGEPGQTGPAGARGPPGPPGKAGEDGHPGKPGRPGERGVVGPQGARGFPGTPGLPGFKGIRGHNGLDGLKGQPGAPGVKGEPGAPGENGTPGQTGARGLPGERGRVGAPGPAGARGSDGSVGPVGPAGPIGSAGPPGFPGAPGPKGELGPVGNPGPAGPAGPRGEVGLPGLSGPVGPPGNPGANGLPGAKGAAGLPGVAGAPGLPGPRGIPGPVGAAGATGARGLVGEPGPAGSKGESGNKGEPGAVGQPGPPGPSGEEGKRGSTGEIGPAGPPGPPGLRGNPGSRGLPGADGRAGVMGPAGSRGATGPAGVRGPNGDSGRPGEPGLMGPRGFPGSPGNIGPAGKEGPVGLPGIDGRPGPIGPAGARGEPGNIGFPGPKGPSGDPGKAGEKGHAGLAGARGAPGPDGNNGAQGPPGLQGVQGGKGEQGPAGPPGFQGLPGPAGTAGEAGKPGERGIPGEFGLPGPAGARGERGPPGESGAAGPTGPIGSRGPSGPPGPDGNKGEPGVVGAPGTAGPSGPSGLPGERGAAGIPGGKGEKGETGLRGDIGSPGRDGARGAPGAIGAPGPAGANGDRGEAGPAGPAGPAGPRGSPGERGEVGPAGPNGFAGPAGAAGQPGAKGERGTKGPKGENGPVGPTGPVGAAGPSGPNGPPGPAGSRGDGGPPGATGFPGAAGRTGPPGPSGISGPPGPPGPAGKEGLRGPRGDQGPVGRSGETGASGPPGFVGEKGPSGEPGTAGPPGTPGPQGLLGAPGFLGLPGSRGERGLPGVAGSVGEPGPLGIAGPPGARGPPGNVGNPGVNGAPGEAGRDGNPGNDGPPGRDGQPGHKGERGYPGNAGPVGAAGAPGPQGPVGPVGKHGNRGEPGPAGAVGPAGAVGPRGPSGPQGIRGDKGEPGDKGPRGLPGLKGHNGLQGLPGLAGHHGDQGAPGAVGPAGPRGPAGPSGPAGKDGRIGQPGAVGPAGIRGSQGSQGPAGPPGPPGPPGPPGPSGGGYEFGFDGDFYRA

N=C(N)NCCC[C@H](N)C(=O)O [arginine, reference compound]
inhibition of 3DG induced collagen crosslinking ([1]; 5 mM 3DG plus 10 mM arginine): fewer high molecular bands

N[C@@H](CCCCNC[C@H](O)[C@@H](O)[C@@H](O)[C@H](O)CO)C(=O)O [galactitollysine]
Plasma 3-deoxyglucosone reduced (3-deoxyglucosone): 50%
average reduction of urinary 3-deoxyglucosone (3-deoxyglucosone): 35%

N[C@@H](CCCCNC[C@H](O)[C@@H](O)[C@H](O)[C@H](O)CO)C(=O)O [sorbitollysine]
Plasma 3-deoxyglucosone reduced (3-deoxyglucosone): 40%
average reduction of urinary 3-deoxyglucosone (3-deoxyglucosone): 50%

N[C@@H](CCCCNC[C@@H](O)[C@@H](O)[C@H](O)[C@H](O)CO)C(=O)O [mannitollysine]
Plasma 3-deoxyglucosone reduced (3-deoxyglucosone): 58%
average reduction of urinary 3-deoxyglucosone (3-deoxyglucosone): 35%

CNC[C@H](O)[C@@H](O)[C@H](O)[C@H](O)CO [meglumine]
average 3-deoxyglucosone concentrations in the urine decreased (3-deoxyglucosone; three rats, 100 μmols intraperitoneal, three hours after the injection): 42%

CO[C@@H]([C@H](O)[C@H](O)CO)[C@@H](O)CNCCCC[C@H](N)C(=O)O [DYN 12, 3-O-methylsorbitollysine]
% Reduction of plasma 3DG vs saline only (3DG; Diabetic rats): 53%
plasma 3DG level (3DG; Diabetic rats): 0.44 ± 0.10 µM
% Reduction of plasma 3DG vs saline only (3DG; Non-diabetic rats): 43%
plasma 3DG level (3DG; Non-diabetic rats): 0.13 ± 0.02 µM
nmols 3OMeSL in kidneys ([2]; 13500 nmols injected intraperitoneally, sacrificed after 3 hours, one line per rat, listed as 3OMeSL): 8155 nmols and 3880 nmols and 10071 nmols and 6582 nmols and 5373 nmols and 4833 nmols
Nmols 3OMeSL in urine ([2]; 13500 nmols injected intraperitoneally, urine collected 3 hours, one line per rat (Rat # 2084-2089), listed as 3OMeSL): 4200 nmols and 1355 nmols and 2940 nmols and 1675 nmols and 1778 nmols and 2360 nmols
presence in urine and plasma ([2]; 3 hours after ip injection): The urine also contained 3-O-methyl sorbitollysine, but plasma did not
tissue extracts found to contain the compound ([2]; brain, heart, muscle, sciatic nerve, spleen, pancreas, liver, kidney examined 3 hours after ip injection): The only tissue extract found to contain 3-O-methyl sorbitollysine was that of the kidney
% 3OMeSL recovered (percentage of the injected dose recovered from urine and kidney) ([2]; urine plus kidneys, one line per rat, listed as 3OMeSL): 91.5% and 38.8% and 96.4% and 61.2% and 53.0% and 53.3%
total 3OMeSL recovered ([2]; urine plus kidneys, one line per rat, listed as 3OMeSL, in nmol): 12355 and 5235 and 13011 and 8257 and 7151 and 7193
amount of pressure needed to displace the skin [3]: 3.2+/−1.2 kPA
muscle strength measured while alert (diabetic rats): stronger muscle strength

O=CC(=O)C[C@H](O)[C@H](O)CO [3DG, 3-deoxyglucosone]
collagen crosslinking (migration on SDS-PAGE) ([1]; 5 mM 3DG): caused the collagen to migrate as if it had a higher molecular weight

NC(CCCCNCC(=O)C(O)C(O)C(O)CO)C(=O)O (stereo not drawn) [fructoselysine, 1-deoxy-1-(ε-aminolysine)-fructose]
Type IV collagen production (mouse mesangial cells; 5 mM fructoselysine with 10 mM glucose): 560 ng/10,000 cells
Type IV collagen production (mouse mesangial cells; 10 mM fructoselysine with 10 mM glucose): 1100 ng/10,000 cells
time of peak 3DF excretion in urine after the bolus [4]: about 4 hours

— US20100297046A1, “Compositions and Methods Related to Fructosamine-3-Kinase Inhibitors” (DYNAMIS THERAPEUTICS, INC., priority 2006, published 2010)
